Assay results from paper PMC9855333, “1-(Arylsulfonyl-isoindol-2-yl)piperazines as 5-HT6R Antagonists: Mechanochemical Synthesis, In Vitro Pharmacological Properties and Glioprotective Activity” (Biomolecules, 2022).

Key:
[1] = molecular target: T1, human D2L receptor (Homo sapiens, UniProt P14416); assay: Radioligand binding, [3H]-raclopride displacement, HEK-293 cells; conditions: mean ± SEM, three independent binding experiments; read-out: Ki [nM] D2
T1 construct: expressed in transfected cells
Procedure: All experiments were performed in HEK-293 cells, which stably express the human 5-HT1A, 5-HT6, 5-HT7b, and D2L receptors, or using CHO-K1 cells expressing human serotonin 5-HT2A receptor, following the previously reported procedures. For displacement studies, the following radioligands (PerkinElmer, USA) at given concentrations were used at: 2.5 nM [^3H]-8-OH-DPAT (135.2 Ci/ mmol); 1 nM [^3H]-ketanserin (53.4 Ci/mmol); 2 nM [^3H]-LSD (83.6 Ci/mmol); 0.8 nM [^3H]-5-CT (39.2 Ci/mmol) or 2.5 nM [^3H]-raclopride (76.0 Ci/mmol) for 5-HT1A, 5-HT2A, 5-HT6, 5-HT7b and D2L receptors, respectively. All tested compounds were evaluated in triplicate at 7 concentrations (10^−10–10^−4 M). The inhibition constants (Ki) were calculated from the Cheng–Prusoff equation [25]. A detailed description is reported in the Supporting Information.
1. Procedure for radioligand binding assay
All experiments were carried out according to the previously published procedures. HEK293 cells stably expressing human 5-HT1A, 5-HT6, 5-HT7b and D2L receptors (prepared with the use of Lipofectamine 2000) or CHO-K1 cells with plasmid containing the sequence coding for the human serotonin 5-HT2A receptor (Perkin Elmer) were maintained at 37 °C in a humidified atmosphere containing 5% CO2 and grown in Dulbecco’s Modified Eagle’s Medium containing 10% dialyzed fetal bovine serum and 500 μg/ml G418 sulfate. For membrane preparation, cells were cultured in 150 cm2 flasks, grown to 90% confluence, washed twice with pre-warmed to 37 °C phosphate buffered saline (PBS) and centrifuged (200 × g) in PBS containing 0.1 mM EDTA and 1 mM dithiothreitol. Prior to membrane preparation, pellets were stored at –80 °C. […]
The process of equilibration was terminated by rapid filtration through Unifilter plates with a 96-well cell harvester and radioactivity retained on the filters was quantified on a Microbeta plate reader (PerkinElmer, USA). […] The inhibition constants (Ki) were calculated from the Cheng-Prusoff equation [4].

[2] = Cytotoxicity, MTT test, C8-D1A; assay type: cell-based; conditions: mouse, C8-D1A cells (mouse astrocytes)
Procedure: Hepatotoxicity, neurotoxicity, and glial cytotoxicity were investigated using the following cellular models: human hepatocellular carcinoma (HepG2), human neuroblastoma (SHSY-5Y), and mouse astrocytes (C8-D1A), all from ATCC (American Type Culture Collection, Manassas, VA, USA). Cells were cultured in appropriate culture media recommended by ATCC supplemented with 10% fetal bovine serum (FBS; Gibco, Life Technologies, Carlsbad, CA, USA) and 1% antibiotic mixture (Gibco, Life Technologies, Carlsbad, CA, USA). Cells were cultured at standard conditions (5% CO2, 95% humidity, 37 °C). For cytotoxicity experiments, cells were seeded into 96 well plates at an initial density of 2000 cells/well. After overnight incubation, cells were treated with 3e, 3f, and 3g in a concentration range of 0.78–50 µM for 48 h; then, an MTT assay was performed as described previously. Briefly, following cell exposure, 10 µL of MTT reagent was added to each well. After the next 4 h, the medium was aspirated, and formazan produced in cells appeared as dark crystals in the bottom of the wells. Next, 100 µL DMSO was added to each well. Then, the optical density of the solution (OD) at 570 nm was determined on a plate reader (Spectra Max iD3, Molecular Devices, San Jose, CA, USA). The experiments were run three times in triplicates.

[3] = test system: C8-D1A astrocytes; assay: Glioprotection against 6-OHDA-induced cytotoxicity, MTT; assay type: cell-based, mouse; conditions: compound 0.25 µM, 6-OHDA 20 µM, 24 h
Procedure: Mouse astrocytes (C8-D1A cell line, ATCC) were cultured in DMEM (Dulbecco’s Modified Eagle’s Medium) supplemented with 10% FBS (FBS; Gibco, Life Technologies, Carlsbad, CA, USA) and 1% antibiotic mixture (Gibco, Life Technologies, Carlsbad, CA, USA) at standard condition until the cells reached 80–90% confluence. Cells were harvested and seeded in 96-well plates at a density of 5000 cells/well. All experiments were conducted with a reduced amount of serum equal to 2.5%. The optimal amount of serum was determined experimentally on the basis of preliminary studies. […] Then 6-OHDA (20 µM) or rotenone (0.5 µM) were added and co-incubated for the next 24 h. The ability of tested compounds to prevent 6-OHDA-induced or rotenone-induced cytotoxicity was assessed by MTT assay following the protocol described above. The experiments were run three times in triplicates.
Considering the pivotal physiological role of astrocytes in contrasting oxidative stress and promoting tissue repair, supporting their neuroprotective function might be regarded as a tangible strategy to improve the current therapeutic needs in the treatment of neurodegenerative disorders. […] For this purpose, cells were co-incubated with the evaluated compounds (at the non-toxic concentration of 0.25 µM) and 6-OHDA or ROT (20 and 0.5 µM, respectively). After 24 h of incubation, the viability of astrocytes was determined using the MTT assay.

T1 sequence (P14416 whole entry): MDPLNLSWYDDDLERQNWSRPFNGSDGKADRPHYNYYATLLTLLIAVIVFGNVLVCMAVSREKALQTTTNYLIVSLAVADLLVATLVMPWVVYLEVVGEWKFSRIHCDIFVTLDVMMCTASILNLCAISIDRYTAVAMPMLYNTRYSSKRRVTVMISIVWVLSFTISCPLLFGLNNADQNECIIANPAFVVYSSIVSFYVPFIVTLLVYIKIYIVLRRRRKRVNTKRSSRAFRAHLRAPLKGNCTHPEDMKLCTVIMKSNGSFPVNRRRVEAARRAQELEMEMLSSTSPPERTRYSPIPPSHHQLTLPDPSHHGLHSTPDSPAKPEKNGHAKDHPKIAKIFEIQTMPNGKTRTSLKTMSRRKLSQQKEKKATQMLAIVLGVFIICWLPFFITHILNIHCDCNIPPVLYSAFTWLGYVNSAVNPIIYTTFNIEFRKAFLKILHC

Row | SMILES | Ki [1] [nM] | IC50 at 48 h [2] [µM] | effect on 6-OHDA-induced cytotoxicity [3]
1 | O=S(=O)(c1cccc(N2CCNCC2)c1)N1Cc2ccccc2C1 [3e, 2-{[3-(Piperazin-1-yl)phenyl]sulfonyl}isoindoline] | 3420 ± 415 | > 50 | –
2 | O=S(=O)(c1cccc(N2CCNCC2)c1)N1Cc2cccc(Cl)c2C1 [3f, 4-Chloro-2-{[3-(piperazin-1-yl)phenyl]sulfonyl}isoindoline] | 2030 ± 299 | > 50 | –
3 | O=S(=O)(c1cccc(N2CCNCC2)c1)N1Cc2cccc(Br)c2C1 [3g, 4-Bromo-2-{[3-(piperazin-1-yl)phenyl]sulfonyl}isoindoline] | 2440 ± 324 | > 50 | decreased the cytotoxicity
